Data from patent US20110275661A1, “TRICYCLIC NITROGEN COMPOUNDS USED AS ANTIBACTERIALS” (Glaxo Group Limited, priority 2008, published 2011).
Counter-ions that a name gives are not always drawn. Like-named read-outs stand apart in the source and are kept apart here.

System: Mycobacterium tuberculosis H37Rv
Experiment: Mycobacterium tuberculosis H37Rv Inhibition Assay
Format: cell-based
Settings: ATCC 25618 / H37Rv, read-out: MIC value
[1] = H37Rv strain (ATCC25618), Middlebrook 7H9+ADC medium, resazurin fluorescence

Row | Structure (SMILES) | MIC [1] | MIC
1 | Cc1cc(=O)n2c3c1ccc(=O)n3[C@H](CN1CCC(NCc3cc4c(cn3)OCCC4)CC1)C2 [Example 1, (1R)-1-({4-[(3,4-dihydro-2H-pyrano[2,3-c]pyridin-6-ylmethyl)amino]-1-piperidinyl}methyl)-6-methyl-1,2-dihydro-4H,9H-imidazo[1,2,3-4]-1,8-naphthyridine-4,9-dione hydrochloride] | < 2 µg/mL | 
2 | Cc1cc(=O)n2c3c1ccc(=O)n3[C@H](CN1CCC(NCc3cc4c(cn3)OCCS4)CC1)C2 [Example 2, (1R)-1-({4-[(2,3-dihydro[1,4]oxathiino[2,3-c]pyridin-7-ylmethyl)amino]-1-piperidinyl}methyl)-6-methyl-1,2-dihydro-4H,9H-imidazo[1,2,3-ij]-1,8-naphthyridine-4,9-dione hydrochloride] |  | < 2 µg/mL
3 | Cc1cc(=O)n2c3c1ccc(=O)n3[C@H](CN1CCC(NCc3cc4c(cn3)OCCO4)CC1)C2 [Example 3, (1R)-1-({4-[(2,3-dihydro[1,4]dioxino[2,3-c]pyridin-7-ylmethyl)amino]-1-piperidinyl}methyl)-6-methyl-1,2-dihydro-4H,9H-imidazo[1,2,3-ij]-1,8-naphthyridine-4,9-dione hydrochloride] |  | > 2.5 µg/mL
4 | Cc1cc(=O)n2c3c1ccc(=O)n3[C@H](CN1CCC(NCc3cc4c(cn3)OCS4)CC1)C2 [Example 4, (1R)-6-methyl-1-({4-[([1,3]oxathiolo[5,4-c]pyridin-6-ylmethyl)amino]-1-piperidinyl}methyl)-1,2-dihydro-4H,9H-imidazo[1,2,3-4]-1,8-naphthyridine-4,9-dione hydrochloride] | < 2 µg/mL | 
